Data reported in the NIST ThermoML archive (doi:10.1016/j.jct.2015.09.031).

Assay: molar heat capacity at constant pressure
Settings: Liquid, Flow calorimetry

CCCCCCC(=O)OCC [ethyl heptanoate]
Settings	molar heat capacity at constant pressure [J/K/mol]
305.4 K, 100 kPa	318.3
305.4 K, 4040 kPa	317.7
305.4 K, 8190 kPa	317.3
305.4 K, 12090 kPa	316.8
305.5 K, 16070 kPa	316.4
315.7 K, 100 kPa	322.5
315.8 K, 4190 kPa	322
315.9 K, 8150 kPa	321.6
315.9 K, 12260 kPa	320.5
316 K, 16160 kPa	319.6
326.2 K, 16030 kPa	323.6
326.5 K, 100 kPa	326.8
326.5 K, 4140 kPa	325.9
326.6 K, 8170 kPa	325.2
326.6 K, 12110 kPa	324.3
335.3 K, 100 kPa	330.3
335.3 K, 4060 kPa	330.1
335.4 K, 8050 kPa	328.6
335.4 K, 12030 kPa	327.6
335.5 K, 16070 kPa	326.9
345.1 K, 100 kPa	334.2
345.2 K, 4070 kPa	333.5
345.6 K, 8230 kPa	332.5
345.7 K, 12160 kPa	332.2
345.7 K, 16230 kPa	330.5
354.2 K, 100 kPa	337.8
354.2 K, 4120 kPa	337.3
354.3 K, 8010 kPa	336.5
354.4 K, 12390 kPa	335.6
354.5 K, 16250 kPa	334.5
364.9 K, 100 kPa	342.1
365.3 K, 3870 kPa	341.3
365.6 K, 8320 kPa	340.3
365.7 K, 12160 kPa	339.5
365.8 K, 15950 kPa	338.3
374.8 K, 100 kPa	346.1
375 K, 3980 kPa	345.5
375.5 K, 8020 kPa	344
375.7 K, 12070 kPa	342.6
375.9 K, 16040 kPa	341.4
384 K, 100 kPa	349.8
385 K, 4020 kPa	349.1
385.4 K, 8040 kPa	347.1
385.5 K, 11880 kPa	346.1
385.7 K, 15890 kPa	345.6

CCOC(=O)/C=C/c1ccccc1 [ethyl trans-3-phenylpropenoate]
Settings	molar heat capacity at constant pressure [J/K/mol]
306.7 K, 100 kPa	299.7
306.7 K, 3970 kPa	297.7
306.8 K, 7840 kPa	297.2
306.9 K, 11640 kPa	295.5
307.1 K, 15780 kPa	294.4
315.8 K, 100 kPa	302.2
315.8 K, 4120 kPa	301.9
315.9 K, 8120 kPa	300.4
316 K, 11870 kPa	299.4
316.1 K, 15790 kPa	297.4
325.2 K, 100 kPa	307.1
325.5 K, 3970 kPa	304.6
325.6 K, 8000 kPa	303
325.8 K, 11720 kPa	301.8
325.8 K, 16030 kPa	301
334.6 K, 100 kPa	311.1
334.8 K, 3970 kPa	309.5
334.9 K, 8070 kPa	308
335 K, 11750 kPa	306.6
335.1 K, 16080 kPa	303.6
345.1 K, 100 kPa	315.3
345.2 K, 3910 kPa	313.4
345.3 K, 7970 kPa	312
345.4 K, 11840 kPa	310.1
345.6 K, 15760 kPa	308.2
355.3 K, 11990 kPa	313.5
355.5 K, 16020 kPa	312.1
355.6 K, 100 kPa	320.2
355.7 K, 3930 kPa	316.6
355.8 K, 7990 kPa	315.4
366 K, 100 kPa	324.5
366.3 K, 4210 kPa	321.3
366.5 K, 8030 kPa	319.6
366.6 K, 12140 kPa	318.6
366.9 K, 16090 kPa	316.8
375.6 K, 100 kPa	328.3
375.8 K, 4120 kPa	326
375.9 K, 8030 kPa	323.8
376.2 K, 12180 kPa	321.6
376.4 K, 16170 kPa	320.4
385.6 K, 100 kPa	332.5
385.9 K, 4170 kPa	330.4
386.1 K, 8090 kPa	329.1
386.3 K, 12160 kPa	327.2
386.5 K, 16040 kPa	325.7
